Data taken from US20260284071A1, “CONTROLLING HOMEOSTATIC REGULATORY CIRCUITRY IN HYPOTHALAMUS” (The Johns Hopkins University, priority 2021, published 2026).
Entries after “also recorded” stand apart in the source; their conditions may differ.

Columns and labels:
Shh signaling [1] = settings: Nfia/b/x-deficient mice
Experimental: 10 μg/g Cyclopamine was injected from P8 to P16 on alternative days. 100 μg/g body weight BrdU was injected together from the 3rd injection for 5 consecutive days. Control mice were treated with the corresponding vehicle solution.
All cell counts were performed blindly and manually by five independent observers using Fiji/ImageJ software. […] Initially, cell numbers were normalized by the size (mm) of hypothalamic nuclei measured. […] All values are expressed as mean±S.E.M. Comparisons were analyzed by two-tailed Student's t-test using Microsoft Excel unless stated otherwise. A p-value of <0.05 was considered statistically significant.

[2] = cited from earlier work
Shh signaling [3] = assay: Activation of Shh signaling with SAG in juvenile control Rax-CreER;CAG-lsl-Sun1-GFP mice: tanycyte-derived neurogenesis; settings: juvenile mice (P10-12), 10 mg/kg i.p.
Experimental: Vehicle controls were performed in parallel. To quantify levels of tanycyte proliferation and neurogenesis, 50 mg/kg 5-Ethynyl-2′-deoxyuridine (EdU) was delivered via three once-daily i.p. injections beginning on the first day of treatment. Four days after the final treatment at P16, immunohistochemistry was performed on 25 μm hypothalamic brain sections to quantify the levels of tanycyte proliferation and tanycyte-derived neurogenesis. The number of Edu+/GFP+/HuC/D+ tanycyte-derived neurons in the DMN, VMN, ArcN, and ME of the hypothalamus were then quantified.
• 1) Dissolved in 5 mg Sag with 1 ml of 1×PBS. • 2) Dilute stock to 1 ug/1 ul stock in 1×PBS that is 200 ul of 5 mg/ml stock into 800 ul of 1× PBS. • 3) if animal is 10 g then it will get 10 ug per gram so that is 100 ug/100 ul of 1 ug/1 ul stock.

leptin receptor Lepr = assay: Leptin injection: pStat3 induction in tanycyte-derived neurons of Nfia/b/x-deficient mice; assay type: in vivo; settings: P90 fasted mice, 3 mg/kg i.p., 45 minutes
Experimental: At P45, 4.4% of tanycyte-derived neurons in the GABA_2 cluster expressed the leptin receptor Lepr (FIG. 5B), despite Lepr being essentially undetectable in tanycytes themselves, as previously reported (19). As a result, it was tested whether tanycyte-derived neurons were capable of responding to leptin signaling. P90 mice that had undergone an overnight fast were injected i.p. with 3 mg/kg leptin, and sacrificed after 45 minutes, providing sufficient time for leptin-responsive neurons throughout the hypothalamus to induce pStat3 immunoreactivity (35, 36). […] A total of 42.3 (2.5) % of parenchymal tanycyte-derived neurons in DMH and ArcN show pStat3 induction under these conditions, along with 22.3 (±3.9) % of tanycyte-derived neurons in the subventricular region (FIG. 5J), confirming that a subset of tanycyte-derived neurons are leptin-responsive.
After brief washing with 1×PBS to remove the antifreeze solution, sections were mounted on Superfrost Plus slides (Fisher Scientific) before starting the immunohistochemistry and dried at room temperature for 30 min. To ensure adequate fixation for nuclear staining, sections were immersed into the fixative solution for 10 min at this point. Antigen retrieval was performed by incubating the slides with the prewarmed sodium citrate buffer (10 mM sodium citrate, pH 6.0) in an 80° C. water bath for 30 min. […] After finishing the first round of immunostaining, the fluorescence signal was crosslinked by incubation in 2% PFA for 10 min, followed by either EdU staining using the Click-iT EdU detection kit conjugated with Alexa Fluor 647 (ThermoFisher #C10340) or BrdU antibody staining. […]
P45 male mice were exposed to ambient heat (38° C.) for 4 hours (67) by incubating in a prewarmed light-controlled cabinet in the rodent metabolism core facility at the Center for Metabolism and Obesity Research of the Johns Hopkins University School of Medicine. During the procedure, mice were provided ad libitum access to water and food and carefully monitored. […]

[4] = 10 μg/g i.p. every 2 days P8-P16, compared to vehicle controls

## CC1=C2C[C@H]3[C@@H](CC=C4C[C@@H](O)CC[C@@]43C)[C@@H]2CC[C@]12O[C@@H]1C[C@H](C)CN[C@H]1[C@H]2C [Cyclopamine]
Shh signaling [1]; [4]
  numbers of GFP/NeuN double-positive neurons in VZ and HP: significant reduction
  numbers of total GFP-positive cells in ventricular zone (VZ) and hypothalamic parenchyma (HP): significant reduction
Shh signaling [1]; BrdU daily P12-P16, compared to vehicle controls
  BrdU incorporation: only significantly different in parenchymal neurons
Shh signaling [1]; i.p.
  neurogenesis (FIG. 4C): inhibits neurogenesis
[2]
  blood-brain barrier permeability: blood-brain barrier-permeable

## CNC1CCC(N(Cc2cccc(-c3ccncc3)c2)C(=O)c2sc3ccccc3c2Cl)CC1 (stereo not drawn) [SAG]
Shh signaling [3]
  tanycyte proliferation as cause of the increase: does not appear to be due to stimulating tanycyte proliferation
Shh signaling [3]; 3 daily injections
  number of tanycyte-derived neurons: increase, including significant increases
[2]
  blood-brain barrier permeability: efficiently cross the blood-brain barrier

## O=C1C2CN(Cc3ccc(Cl)cc3)CCN2C(=O)N1OC(=O)N1CCOc2ccccc21 (stereo not drawn) [ABC99, 7-(4-Chlorobenzyl)-1,3-dioxohexahydroimidazo[1,5-a]pyrazin-2(3H)-yl 2,3-dihydro-4Hbenzo[b][1,4]oxazine-4-carboxylate]
[2]
  blood-brain barrier permeability: blood-brain barrier-permeable; also recorded: efficiently cross the blood-brain barrier

B1: leptin: Recombinant Murine Leptin (PeproTech #450-31) (protein, UniProt P41160 22-167, looked up)
Leptin: VPIQKVQDDTKTLIKTIVTRINDISHTQSVSAKQRVTGLDFIPGLHPILSLSKMDQTLAVYQQVLTSLPSQNVLQIANDLENLRDLLHLLAFSKSCSLPQTSGLQKPESLDGVLEASLYSTEVVALSRLQGSLQDILQQLDVSPEC
Leptin receptor Lepr
  pStat3 immunoreactivity in GFP-positive tanycyte-derived neurons: Robust induction
  parenchymal tanycyte-derived neurons in DMH and ArcN showing pStat3 induction: 42.3 (2.5) %
  tanycyte-derived neurons in the subventricular region showing pStat3 induction: 22.3 (±3.9) %
